In patent US20230355749A1, “Immunomodulatory Compounds And Use Thereof For The Treatment And/Or Prevention Of Infectious Diseases” (AC […], priority 2020, published 2023):
Counter-ions that a name gives are not always drawn.

Assays:
[1] = tested on: Bone-marrow derived dendritic cells (BMDC); assay: Co-stimulatory marker and MHC surface expression by FACS in BMDC stimulated with LPS and OVA257-264 peptide; format: cell-based, C57BL/6 mice; details: pre-treated 1 hour, then LPS 100 ng/ml + OVA257-264 peptide 10 μM for 24 hours; live CD11c+ population
Description: (§1) Cells were analysed for expression of co-stimulatory markers and MHC complexes at the cell surface by FACS, gated on the live CD11c+ population. Panel A) Median fluorescence intensity ([…]) of CD40, CD80 and CD86 expression. Panel B) Overall expression of MHC-II, given by the expression of I-Ab. Panel C) Relative surface expression of MHC-I (H2-Kb): OVA257-264 peptide complexes over the total surface expression of H2-Kb. Panel D) Quantification of cytokine secretion by ELISA. Data is expressed as the mean+/−standard error of the mean (SEM). Statistical significance was determined by a student's t-test with *p≤0.05.
(§2) LPS (100 ng/ml) was used in this instance as a model Toll-like Receptor ligand for a pathogen and a surrogate for the licensed TLR-specific adjuvant-MPLA.

[2] = tested on: immature DC (CD11c+MHC-II int); assay: Endocytosis (uptake) of OVA-AF647 protein by immature DC; format: cell-based, C57BL/6 mice; details: pretreated 3 hours (ACB1801s 20 μM), OVA-AF647 2 μg/ml; for percentage of OVA-AF647+ cells: 3 mice, vehicle 71.00+/−0.058; for Median Fluorescence Intensity of OVA-AF647 within the positive population (amount of protein taken up): vehicle 5533.33+/−60.26, P≤0.0001
LPS-matured BMDC = details: DC matured with 100 ng/ml LPS 36 h; pretreated 1 hour, Eα55-68 pulse 3 hours, analyzed after 24 hours; live CD11c+MHC-II(I-Ab) high; vehicle 1553.33±54.93, p=0.03
Text: Specifically, these complexes were recognized using fluorochrome-labelled monoclonal antibodies of Y-Ae for I-Ab: Eα55-68 complexes and 25-D1.16 for H2-Kb: OVA257-264 complexes. In all experiments, BMDC were differentiated in vitro from bone marrow precursor cells of C57BL/6 mice using GM-CSF and IL-4 at 250 and 5 UI/ml, respectively.

[3] = tested on: Bone-marrow derived dendritic cells (BMDC); assay: Cytokine secretion by ELISA in BMDC stimulated with LPS and OVA257-264 peptide; format: cell-based, C57BL/6 mice; details: LPS 100 ng/ml + OVA257-264 peptide 10 μM, after 24 hours
Description: as §1, §2

| Structure (SMILES) | expression of CD80/CD86 co-stimulatory markers [1] | overall expression of surface MHC-II (I-Ab) [1] | percentage of OVA-AF647+ cells [2] | Median Fluorescence Intensity of OVA-AF647 within the positive population (amount of protein taken up) [2] | Median Fluorescence Intensity (MFI) of I-Ab: Eα55-68 specific complexes (LPS-matured BMDC) | levels of pro-inflammatory cytokines (IL-6, and TNF) [3] |
| --- | --- | --- | --- | --- | --- | --- |
| COc1ccc2c(c1)[nH]c1c(C)nccc12.Cl [ACB1801s, harmine HCl] | increased | increased | 72.37+/−0.94 | 6725.67+/−41.450 | 1742.33±15.62 | reduced |
| Cc1[nH]ccc2c1[nH]c1cc(=O)ccc12 [ACB1804s, harmol HCl] |  |  | 73.867+/−0.751 | 6628+/−98.475 |  |  |
